For this experiment, the system named is HCV 1b_Huh-Luc/Neo-ET cell line persistently expressing a bicistronic genotype 1b replicon in Huh 7 cells. Description: HCV replicon assay, luciferase enzyme activity readout. It is filed as cell-based. To be noted: Hepatitis C virus, 72 h incubation, average EC50 range, read-out: Inhibition of HCV genotype 1b. As for the experimental part:
Biological activity of the compounds of the invention was determined using an HCV replicon assay. The HCV 1b_Huh-Luc/Neo-ET cell line persistently expressing a bicistronic genotype 1b replicon in Huh 7 cells was obtained from ReBLikon GMBH. This cell line was used to test compound inhibition using luciferase enzyme activity readout as a measurement of compound inhibition of replicon levels.
On Day 1 (the day after plating cells), each compound is added in triplicate to the cells. Plates are incubated for 72 h prior to determining luciferase levels. Enzyme activity was measured using a Bright-Glo Kit (cat. number E2620) manufactured by Promega Corporation. The following equation was used to generate a percent control value for each compound. % Control=(Compound Luciferase Level/Control Luciferase Level)*100
The EC50 value was determined using GraphPad Prism and the following equation: Y=Bottom asymptote+(Top asymptote−Bottom asymptote)/(1+10^((Log EC50−X)*HillSlope))
EC50 values of compounds are determined several times in the replicon assay to generate average EC50 values. […]

Regarding `[2H]C([2H])([2H])C([2H])(C([2H])([2H])[2H])[C@]([2H])(NC(=O)OC)C(=O)N1CCC[C@H]1c1ncc(-c2ccc3c(c2)Oc2ccc(-c4cnc([C@@H]5CCCN5C(=O)[C@@]([2H])(NC(=O)OC)C([2H])(C([2H])([2H])[2H])C([2H])([2H])[2H])[nH]4)cc2O3)[nH]1` [Compound 57], the EC50 is under 1 nM.

Take `COC(=O)N[C@H](C(=O)N1CCC[C@H]1c1ncc(-c2cc3oc4ccc(-c5cnc([C@@H]6CCCN6C(=O)[C@@H](NC(=O)OC)C6CCOCC6)[nH]5)cc4c(=O)c3cc2F)[nH]1)C(C)C` [Compound 28]: the EC50 is under 1 nM.

For the origin of these results see patent US9150554B2, “Fused ring inhibitors of hepatitis C” (Presidio Pharmaceuticals, Inc., priority 2009, dated 2015).
